Experimental data taken from US8927724B2, “Isoxazole beta-lactamase inhibitors” (priority 2012, dated 2015).
Structures can show the parent of a compound that is named as a salt.

How the values were obtained:
KPC-2 β-lactamase = KPC-2 β-lactamase (Klebsiella pneumoniae, UniProt Q9F663); experiment: Inhibition kinetics of KPC-2 with nitrocefin as reporter substrate; format: biochemical, K. pneumoniae; details: KPC-2, 100 μM nitrocefin, 1×PBS pH 7.4, 25° C.
Protocol: Inhibition or inactivation of KPC-2 by test inhibitors was assessed using 100 μM nitrocefin (NCF) as a reporter substrate. Assays were performed in 1×PBS pH 7.4, 0.1 mg/ml BSA, in 96-well half area plates, 50 μl reaction volume. NCF was dissolved in DMSO and diluted in assay buffer. Test inhibitors were dissolved in water or DMSO and serially diluted in the assay with final concentrations between […] The enzyme activity in the presence of varying concentrations of test inhibitor was determined by monitoring the hydrolysis of NCF spectrophotometrically at 486 nm, for 5 minutes, 25° C., using a SpectraMax Plus384 microplate reader with SoftMax Pro software (Molecular Devices). Data analysis was performed using GraphPad Prism (GraphPad Software, Inc.).
Progress curves were fit to a first-order rate decay equation (Eq. 1) to determine kobserved (kobs).
kobs vs. inhibitor concentration [I] curves were then fit to Eq.2 to determine the inhibitor dissociation constant (K) and the first order rate constant of enzyme inactivation at infinite inhibitor concentration (kinact). […] Yt=V0*(1−e^(−kobs^*t))/kobs Eq. 1 Where Y is the absorbance at time t, Vo is the uninhibited enzyme velocity, kobs is the observed rate constant of the enzyme inactivation. kobs=kinact*[I]/([I]+K(1+S/Km)) Eq. 2 Where S is the NCF concentration, Km is the KPC-2 Km for NCF

[1] = tested on: bacterial strains that express KPC β-lactamases; experiment: Synergy MIC / standard BLI potentiation MIC assay, strains expressing KPC β-lactamases; format: cell-based; details: at least one KPC strain and/or better spectrum; in the presence of a β-lactam
Protocol: (§1) The experimental protocol was performed according to Clinical and Laboratory Standards Institute (CLSI) guidelines with modifications as described below (CLSI guidelines can be derived from the CLSI document M07-A9 published in January 2012: “Methods for Dilution Antimicrobial Susceptibility Tests for Bacteria That Grow Aerobically; Approved Standard-Ninth Edition”).
(§2) To prepare for MIC testing, frozen glycerol stocks of clinical isolates (Klebsiella pneumoniae, Eschericia coli, Enterobacter spp, Citrobacter spp, or Pseudomonas aeruginosa) were used to streak for isolated colonies on rich, non-selective, tryptic soy agar containing 5% sheep's blood (TSAB). Frozen glycerol stocks of laboratory engineered, isogenic E. coli strains, which contain cloned β-lactamase expressing plasmids were used to streak for isolated colonies on rich, selective LB agar supplemented with 25 μg/mL tetracycline to maintain the plasmid. All strains were incubated at 37° C. for 18-24 hrs.
(§3) On the day of testing, primary cultures were started by scraping off 5-10 colonies from the TSAB plates containing clinical strains or the tetracycline supplemented LB plates containing engineered strains. The clinical strain material was suspended in ˜5 mL of cation adjusted Mueller Hinton Broth (CAMHB) in 14 mL culture tubes. The engineered strain material was suspended in CAMHB (supplemented with 25 μg/mL tetracycline) in 14 mL culture tubes. All strains were incubated at 37° C. with aeration (200 rpm) for ˜2 hrs until the optical density at 600 nm (OD600) was >0.1.
(§4) The two compound components of the assay were each diluted in CAMHB and added to the 96-well broth microdilution assay plates. 50 μL of the β-lactam was added to each well of the assay plate in 2-fold dilutions with final concentrations ranging from 128 to 0.13 μg/mL. 25 μL of the BLI compound was added to all wells in the broth microdilution plates at a final concentration of 4 μg/mL. Inoculum cultures were prepared by standardizing the primary cultures to OD600=0.1 and then adding 20 μL of the adjusted primary culture per 1 mL CAMHB for clinical strains or CAMHB (supplemented with tetracycline at 100 μg/mL) for engineered strains, so that the final inoculum density was ˜10^5 colony forming units per milliliter. Diluted inoculum cultures were used to inoculate 25 μl, per well in 96-well broth microdilution assay plates. The final volume of each well was 100 μL and contained a β-lactam at different concentrations, a BLI compound at 4 μg/mL concentration, the bacterial culture at an OD600 of approximately 0.001 and when necessary tetracycline at 25 μg/mL.
(§5) Plates were incubated for 18-20 hours at 37° C. with aeration (200 rpm). Following incubation, growth was confirmed visually placing plates over a viewing apparatus (stand with a mirror underneath) and then OD600 was measured using a SpectraMax 340PC384 plate reader (Molecular Devices, Sunnyvale, Calif.). Growth was defined as turbidity that could be detected with the naked eye or achieving minimum OD600 of 0.1. MIC values were defined as the lowest concentration producing no visible turbidity.
The synergy MIC (sMIC) assay determines the concentration of the BLI required to potentiate the activity of a fixed concentration of a β-lactam antibiotic against β-lactamase producing bacterial strains. The experimental protocol was performed according to Clinical and Laboratory Standards Institute (CLSI) guidelines with modifications as described below (CLSI guidelines can be derived from the CLSI document M07-A9 published in January 2012: “Methods for Dilution Antimicrobial Susceptibility Tests for Bacteria That Grow Aerobically; Approved Standard-Ninth Edition”). […]

[2] = tested on: bacterial strains that express the class D cephalosporinase OXA-15; experiment: Synergy MIC / standard BLI potentiation MIC assay, strains expressing OXA-15; format: cell-based, E. coli; details: in the presence of a β-lactam; comparator Avibactam (CCC)
Protocol: as §1, §2, §3, §4, §5
The synergy MIC (sMIC) assay determines the concentration of the BLI required to potentiate the activity of a fixed concentration of a β-lactam antibiotic against β-lactamase producing bacterial strains. […]

KPC-2 β-lactamase, sequence (Q9F663 25-293 limits assumed): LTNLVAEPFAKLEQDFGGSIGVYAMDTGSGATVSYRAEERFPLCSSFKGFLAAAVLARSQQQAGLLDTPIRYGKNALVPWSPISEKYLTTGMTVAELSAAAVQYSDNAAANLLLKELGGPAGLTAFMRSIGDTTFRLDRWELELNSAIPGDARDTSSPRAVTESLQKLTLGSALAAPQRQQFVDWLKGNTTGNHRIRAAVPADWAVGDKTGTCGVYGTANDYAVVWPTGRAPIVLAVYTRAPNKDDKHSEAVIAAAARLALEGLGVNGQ

SMILES | inactivation efficiency (kinact/K) (KPC-2 β-lactamase) | activity and/or spectrum of activity against bacterial strains that express KPC β-lactamases, compared with Avibactam [1] | activity against bacterial strains that express OXA-15, compared with Avibactam [2]
NCCc1cc([C@@H]2CC[C@@H]3CN2C(=O)N3OS(=O)(=O)O)no1 [Compound 602, (2S,5R)-2-(5-(2-aminoethyl)isoxazol-3-yl)-7-oxo-1,6-diazabicyclo[3.2.1]octan-6-yl hydrogen sulfate] | 1-99 mM^−s^−1 | more active than Avibactam | 
N=C(N)NCCc1cc([C@@H]2CC[C@@H]3CN2C(=O)N3OS(=O)(=O)O)no1 [Compound 604, (2S,5R)-2-(5-(2-guanidinoethyl)isoxazol-3-yl)-7-oxo-1,6-diazabicyclo[3.2.1]octan-6-yl hydrogen sulfate] |  | more active than Avibactam | more active than Avibactam
CN(Cc1cc([C@@H]2CC[C@@H]3CN2C(=O)N3OS(=O)(=O)O)no1)C(=N)N [Compound 614, (2S,5R)-2-(5-((1-methylguanidino)methyl)isoxazol-3-yl)-7-oxo-1,6-diazabicyclo[3.2.1]octan-6-yl hydrogen sulfate] |  | more active than Avibactam | more active than Avibactam
O=C1N2C[C@@H](CC[C@H]2c2cc(CC3CNC3)on2)N1OS(=O)(=O)O [Compound 618, (2S,5R)-2-(5-(azetidin-3-ylmethyl)isoxazol-3-yl)-7-oxo-1,6-diazabicyclo[3.2.1]octan-6-yl hydrogen sulfate] |  | more active than Avibactam | more active than Avibactam
